Measured values taken from patent US20210386781A1, “A GROUP OF CHIMERIC ANTIGEN RECEPTORS (CARS)” (ST. ANNA KINDERKREBSFORSCHUNG, priority 2018, published 2021).

Legend:
A431-fLuc = assay: Luciferase-based cytotoxicity assay, stably transduced CAR T cells against A431-fLuc, Example 4; type: cell-based, human; conditions: T cells without CAR expression; 10 nM
Method: Luciferase-expressing tumour cells were co-cultured with CAR T cells at an E:T cell ratio of 2:1 with 10,000 target cells/well in white round-bottom 96 well plates for 4 hours at 37° C. in cytotoxicity assay medium, consisting of phenol-free RPMI, 10% FCS, 1% L-Glutamine and 1% penicillin-streptomycin. Finally, remaining living cells were quantified by determination of the residual luciferase activity of the co-culture. After equilibration to room temperature for 10 minutes, luciferin was added to the cell suspension (150 μg/mL final concentration) and luciferase activity was measured 20 minutes later using the ENSPIRE Multimode plate reader. The percentage of specific lysis was determined with the following formula:
% specific lysis=100−((RLU from well with effector and target cell co-culture)/(RLU from well with target cells only)×100)).
Dimerization of transgenes was induced prior to co-cultivation experiments. Primary T cells were diluted to the final cell concentration in the respective cell culture medium. The homodimerization agent AP20187 was diluted in cell culture medium and was added at 10 nM final concentration. Addition of the respective vehicle control DMSO at the same concentration served as control. Cells were incubated at 37° C. for 30 minutes to ensure efficient dimerization of transgenes and subsequently used for in vitro experiments.

[1] = test system: Jurkat T cells expressing tHER2; assay: Luciferase-based cytotoxicity assay, affibody-based CAR T cells against tHER2-expressing Jurkat T cells, Example 8; type: cell-based, human; conditions: binder fused to 8ser-BB-FKBP(36V)-3z; with or without 10 nM AP20187; E:T 2:1, 4 hours
Method: Luciferase-expressing tumour cells were co-cultured with CAR T cells at an E:T cell ratio of 2:1 with 10,000 target cells/well in white round-bottom 96 well plates for 4 hours at 37° C. in cytotoxicity assay medium, consisting of phenol-free RPMI, 10% FCS, 1% L-Glutamine and 1% penicillin-streptomycin. Finally, remaining living cells were quantified by determination of the residual luciferase activity of the co-culture. After equilibration to room temperature for 10 minutes, luciferin was added to the cell suspension (150 μg/mL final concentration) and luciferase activity was measured 20 minutes later using the ENSPIRE Multimode plate reader. The percentage of specific lysis was calculated with the following formula:
Dimerization of transgenes was induced prior to co-cultivation experiments. Primary T cells were diluted to the final cell concentration in the respective cell culture medium. The homodimerization agent AP20187 was diluted in cell culture medium and was added at 10 nM final concentration. Addition of the vehicle control DMSO at the same concentration served as control. Cells were incubated at 37° C. for 30 minutes to ensure efficient dimerization of transgenes and subsequently used for in vitro experiments.

Row | Compound | effect of the dimerization agent itself on lysis of target cells (A431-fLuc) | capacity to trigger cytotoxicity in presence or absence of AP20187 [1]
1 | CC[C@H](C(=O)N1CCCC[C@H]1C(=O)O[C@H](CCc1ccc(OC)c(OC)c1)c1cccc(OCC(=O)NCC(CNC(=O)COc2cccc([C@@H](CCc3ccc(OC)c(OC)c3)OC(=O)[C@@H]3CCCCN3C(=O)[C@@H](CC)c3cc(OC)c(OC)c(OC)c3)c2)CN(C)C)c1)c1cc(OC)c(OC)c(OC)c1 [AP20187, reference compound] | no effects on the lysis of target cells | –
2 | zHER2-WT: high-affinity anti-HER2 affibody with point mutations N23A and S33K | – | efficient target cell lysis independent of presence of AP20187
